Tests used:
in vivo [1] = settings: Sprague-Dawley, rat, plasma, po, 3 mg/kg
in vivo [2] = settings: Sprague-Dawley, rat, plasma, po, 3 mg/kg; remark: listed apart in the source
in vivo [3] = settings: Sprague-Dawley, rat, liver, po, 3 mg/kg
in vivo [4] = settings: Sprague-Dawley, rat, liver, po, 3 mg/kg; remark: listed apart in the source
in vivo [5] = settings: Sprague-Dawley, rat, iv, 1 mg/kg
in vivo [6] = settings: Sprague-Dawley, rat, 3 mg/kg
in vivo [7] = settings: Sprague-Dawley, rat, po, 3 mg/kg
in vivo [8] = settings: Sprague-Dawley, rat, po, 3 mg/kg; remark: listed apart in the source
in vivo [9] = settings: Sprague-Dawley, rat, po, 3 mg/kg; remark: listed apart in the source
in vivo [10] = settings: Sprague-Dawley, rat, po, 3 mg/kg; remark: listed apart in the source
in vivo [11] = settings: Sprague-Dawley, rat, po, 3 mg/kg; remark: listed apart in the source
in vivo [12] = settings: Sprague-Dawley, rat, iv, 1 mg/kg; remark: listed apart in the source
in vivo [13] = settings: Sprague-Dawley, rat, iv, 1 mg/kg; remark: listed apart in the source

Q: With `O=C(O)c1cc(F)c2nc(N3CCC(F)(COCc4c(-c5c(F)cccc5Cl)noc4C4CC4)CC3)sc2c1` as the compound, how does the concentration at 4 h (in vivo [1]) read?
A: 94.8 ng/mL

Q: And the concentration at 1 h (in vivo [2])?
A: 241 ng/mL

Q: What about the concentration at 4 h (in vivo [3]) of the same compound?
A: 929 ng/mL

Q: And the concentration at 1 h (in vivo [4])?
A: 1550 ng/mL

Q: Which AUC(0-t) (in vivo [5]) does the source give for `CCn1cc(C(=O)O)c2ccc(N3CCC(F)(COCc4c(-c5c(F)cccc5Cl)noc4C4CC4)CC3)cc21` here?
A: 611 ng·h/mL

Q: What about the Vd (in vivo [6]) of the same compound?
A: 0.81 L/kg

Q: And the concentration at 4 h (in vivo [1])?
A: 49 ng/mL

Q: What about the concentration at 1 h (in vivo [2]) of the same compound?
A: 24 ng/mL

Q: What about the Tmax (in vivo [7]) of the same compound?
A: 15 min

Q: What about the concentration at 4 h (in vivo [3]) of the same compound?
A: 772 ng/mL

Q: What about the bioavailability (in vivo [8]) of the same compound?
A: 5.64%

Q: And the Cmax (in vivo [9])?
A: 117 ng/mL

Q: What about the half-life (in vivo [10]) of the same compound?
A: 58.8 min

Q: And the AUC(0-t) (in vivo [11])?
A: 103 ng·h/mL

Q: And the concentration at 1 h (in vivo [4])?
A: 656 ng/mL

Q: What about the MRT inf (in vivo [12]) of the same compound?
A: 30.6 min

Q: What about the clearance (in vivo [13]) of the same compound?
A: 26.4 mL/min/kg

Q: Which AUC(0-t) (in vivo [5]) does the source give for `Cn1cc(C(=O)O)c2ccc(N3CCC(OCc4c(-c5c(Cl)cccc5Cl)noc4C4CC4)CC3)cc21` [TERN-101] here?
A: 201 ng·h/mL

Q: What about the Vd (in vivo [6]) of the same compound?
A: 1.74 L/kg

Q: What about the concentration at 4 h (in vivo [1]) of the same compound?
A: 52.1 ng/mL

Q: What about the concentration at 1 h (in vivo [2]) of the same compound?
A: 19.3 ng/mL

Q: What about the Tmax (in vivo [7]) of the same compound?
A: 15 min

Q: And the concentration at 4 h (in vivo [3])?
A: 153 ng/mL

Q: And the bioavailability (in vivo [8])?
A: 32.4%

Q: What about the Cmax (in vivo [9]) of the same compound?
A: 283 ng/mL

Q: What about the half-life (in vivo [10]) of the same compound?
A: 133 min

Q: What about the AUC(0-t) (in vivo [11]) of the same compound?
A: 195 ng·h/mL

Q: What about the concentration at 1 h (in vivo [4]) of the same compound?
A: 121 ng/mL

Q: And the MRT inf (in vivo [12])?
A: 21 min

Q: What about the clearance (in vivo [13]) of the same compound?
A: 82.6 mL/min/kg

Q: Which AUC(0-t) (in vivo [5]) does the source give for `O=C(O)c1cc(F)c2nc(N3C4CCC3CC(F)(COCc3c(-c5ccccc5OC(F)(F)F)noc3C3CC3)C4)sc2c1` (configuration not stated) here?
A: 1930 ng·h/mL

Q: And the Vd (in vivo [6])?
A: 0.84 L/kg

Q: And the concentration at 4 h (in vivo [1])?
A: 165 ng/mL

Q: And the concentration at 1 h (in vivo [2])?
A: 1140 ng/mL

Q: What about the Tmax (in vivo [7]) of the same compound?
A: 22.8 min

Q: What about the concentration at 4 h (in vivo [3]) of the same compound?
A: 612 ng/mL

Q: What about the bioavailability (in vivo [8]) of the same compound?
A: 32.2%

Q: What about the Cmax (in vivo [9]) of the same compound?
A: 590 ng/mL

Q: And the half-life (in vivo [10])?
A: 1220 min

Q: What about the AUC(0-t) (in vivo [11]) of the same compound?
A: 1860 ng·h/mL

Q: What about the concentration at 1 h (in vivo [4]) of the same compound?
A: 2340 ng/mL

Q: And the MRT inf (in vivo [12])?
A: 102 min

Q: What about the clearance (in vivo [13]) of the same compound?
A: 8.54 mL/min/kg

Q: Which concentration at 4 h (in vivo [1]) does the source give for `CCn1c(C(=O)O)cc2ccc(N3CCC(F)(COCc4c(-c5c(Cl)cccc5Cl)noc4C4CC4)CC3)cc21` here?
A: 12.6 ng/mL

Q: What about the concentration at 1 h (in vivo [2]) of the same compound?
A: 6.3 ng/mL

Q: What about the concentration at 4 h (in vivo [3]) of the same compound?
A: 186 ng/mL

Q: And the concentration at 1 h (in vivo [4])?
A: 72 ng/mL
